Measured values: US5053216A, “Radioactive Jomol, its derivatives, processes for the production of these compounds, their use and product” (priority 1985, dated 1991)

Columns and labels:
[1] = human body; cited from earlier work
[2] = format: physicochemical; settings: acid environment / stomach

SMILES	rate of metabolism versus ethanol [1]	removal of bound radium [2]
CO [Methanol]	substantially more slowly	
O=Cc1ccc2c(c1)OCC(=O)N1CCOCCOCCN(CCOCCOCC1)C(=O)CO2 [CE]		instable in the stomach, stable in the rest of the body
